Series [1] concerns KOPT-K1 cells. The series is classed as cell-based.
Series [2] relates to KOPT-K1 cells. Kind of series: In vitro drug wash-out assay, cell growth. The series is classed as cell-based. The conditions noted are these: 100nM for 18 hours, then drug-free media.
The nature of series [3]: in vivo. As to conditions: NSG, mouse, plasma, ip, 10 mg/kg.
A short description of series [4]: Cytotoxicity in CD34+ cells from healthy donors. The conditions noted are these: human, CD34+ cells from cord blood of healthy donors.
Series [5] can be described thus: Cytotoxicity in peripheral blood mononuclear cells. As to conditions: human, peripheral blood mononuclear cells (PBMCs).

What is called AUC is concentration integrated over time. A low value points to low exposure. As usually defined, the half-life is how long it takes for the measured level to halve. The low end stands for rapid decline, the high end for slow decline. One may read the CC50 as the concentration giving 50% cytotoxicity. On to `Cc1nc(Nc2ncc(C(=O)Nc3c(C)cccc3Cl)s2)cc(N2CCN(CCO)CC2)n1` [dasatinib], for which the “effect of lenalidomide on LC50” value in series [1] is listed as “did not alter”. In addition, in series [1] (CRBN^KO vs CRBN^WT KOPT-K1, 72 hours), the “effect of CRBN deletion (CRBN^KO) on cell sensitivity” value was “did not alter cell sensitivity”. In series [2], the “time post drug removal at which cells began to recover” value is 96 h. In series [3], this molecule had an AUC of 1400 ng·h/mL and a half-life of 55.2 min. In series [4], this molecule registered a CC50 at 72 h of 92.9 nM. The molecule further displayed a CC50 at 72 h in series [5] of 2.81 nM.
With `Nc1cccc2c1CN(C1CCC(=O)NC1=O)C2=O` (centres unmarked) [lenalidomide], the “effect on T-ALL survival and growth” value in series [1] (single agent) was “no effect”.

The values are drawn from paper PMC9730446 (Science translational medicine, 2022).
